Reference: patent publication US20250250261A1, “NOVEL SUBSTITUTED FLUORINATED VINYL-N-PROPYL-PYRROLIDINE COMPOUNDS, PROCESSES FOR THEIR PREPARATION AND THERAPEUTIC USES THEREOF” (SANOFI, priority 2022, published 2025)

Each molecule was assayed against T1, ERα (Homo sapiens, UniProt P03372) (assay: Estrogen receptor degradation activity: breast cancer cell ERα in cell western assay (MCF7 cells)). Details: 4 hours, % of ERα levels decrease relative to fulvestrant (0.1 μM) and DMSO.
T1 construct: host or cells: MCF7
T1 sequence (P03372 1-595): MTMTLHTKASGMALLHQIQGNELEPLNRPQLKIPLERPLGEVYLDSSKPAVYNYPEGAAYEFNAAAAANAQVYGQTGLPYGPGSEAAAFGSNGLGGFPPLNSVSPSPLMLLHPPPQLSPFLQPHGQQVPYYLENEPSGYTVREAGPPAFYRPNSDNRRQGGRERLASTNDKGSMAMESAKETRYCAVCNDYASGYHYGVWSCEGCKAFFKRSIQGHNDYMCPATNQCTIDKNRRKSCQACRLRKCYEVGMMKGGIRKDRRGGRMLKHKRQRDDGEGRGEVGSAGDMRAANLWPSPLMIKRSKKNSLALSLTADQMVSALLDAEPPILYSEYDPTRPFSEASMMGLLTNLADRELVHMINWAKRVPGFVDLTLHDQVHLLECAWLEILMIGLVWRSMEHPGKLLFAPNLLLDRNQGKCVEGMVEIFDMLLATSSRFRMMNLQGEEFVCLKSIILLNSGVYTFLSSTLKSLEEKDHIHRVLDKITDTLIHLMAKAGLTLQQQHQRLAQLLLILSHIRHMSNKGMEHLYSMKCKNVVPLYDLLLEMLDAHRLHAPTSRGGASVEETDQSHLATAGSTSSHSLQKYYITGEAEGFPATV
Type: cell-based
Protocol: Test: Estrogen Receptor Degradation Activity
Said test involves measuring the in vitro degradation activity of the compounds of the Table 1a.
The measurements of the degradation activities were made using a breast cancer cell ERα in cell western assay as described hereunder.
MCF7 cells (ATCC) were seeded in 384 wells microplate (collagen coated) at a concentration of 10000 cells/30 μL per well in red phenol free MEM alpha medium (invitrogen) containing 5% charcoal dextran striped FBS. The following day, 9 points serial 1:5 dilution of each compound was added to the cells in 2.5 μL at final concentrations ranging from 0.3-0.0000018 μM (in table 2), or 0.1 μM for fulvestrant (using as positive control). At 4 hours post compound addition the cells were fixed by adding 25 μL of formalin (final concentration 5% formalin containing 0.1% triton) for 10 minutes at room temperature and then washed twice with PBS. Then, 50 μL of LI-COR blocking buffer containing 0.1% Triton was added to plate for 30 minutes at room temperature. LI-COR blocking buffer was removed and cells were incubated overnight at cold room with 50 μL anti-ER rabbit monoclonal antibody (Thermo scientific MA1-39540) diluted at 1:1000 in LI-COR blocking buffer containing 0.1% tween-20. Wells which were treated with blocking buffer but no antibody were used as background control. Wells were washed twice with PBS (0.1% tween-20) and incubated at 37° C. for 60 minutes in LI-COR (0.1% tween-20) containing goat anti-rabbit antibody Alexa 488 (1:1000) and Syto-64 a DNA dye (2 μM final concentration). Cells were then washed 3 times in PBS and scanned in ACUMEN explorer (TTP-Labtech). Integrated intensities in the green fluorescence and red fluorescence were measured to determine the levels of ERα and DNA respectively.
The degradation activity with respect to estrogen receptors in this test is given by the concentration which degrades 50% of the estrogen receptor (or IC50) in nM.
The % of ERα levels decrease were determined as follows: % inhibition=100*(1−(sample−fulvestrant:DMSO−fulvestrant)).

% Degradation At 0.3 μM [%] | Compound
89 | O=C(O)c1ccc2c(c1)CCCC(c1ccccc1C(F)(F)F)=C2c1ccc(/C=C2/CCN(CCCF)C2)cc1 [Compound 22, (Z)-9-(4-((1-(3-fluoropropyl)pyrrolidin-3-ylidene)methyl)phenyl)-8-(2-(trifluoromethyl)phenyl)-6,7-dihydro-5H-benzo[7]annulene-3-carboxylic acid]
96 | O=C(O)c1ccc2c(c1)CCCC(c1ccc(Cl)cc1Cl)=C2c1ccc(/C=C2/CCN(CCCF)C2)c(F)c1 [Compound 23, (Z)-8-(2,4-dichlorophenyl)-9-(3-fluoro-4-((1-(3-fluoropropyl)pyrrolidin-3-ylidene)methyl)phenyl)-6,7-dihydro-5H-benzo[7]annulene-3-carboxylic acid]
91 | Cl.O=C(O)c1ccc2c(c1)CCC(c1ccc(Cl)cc1Cl)=C2c1ccc(/C=C2/CCN(CCCF)C2)cc1 [Compound 24, (Z)-6-(2,4-dichlorophenyl)-5-(4-((1-(3-fluoropropyl)pyrrolidin-3-ylidene)methyl)phenyl)-7,8-dihydronaphthalene-2-carboxylic acid hydrochloride]
91 | O=C(O)c1ccc2c(c1)CCCC(c1cccc(C(F)(F)F)c1)=C2c1ccc(/C=C2/CCN(CCCF)C2)cc1 [Compound 25, (Z)-9-(4-((1-(3-fluoropropyl)pyrrolidin-3-ylidene)methyl)phenyl)-8-(3-(trifluoromethyl)phenyl)-6,7-dihydro-5H-benzo[7]annulene-3-carboxylic acid]
92 | O=C(O)c1ccc2c(c1)CCCC(c1ccc(C(F)(F)F)cc1)=C2c1ccc(/C=C2/CCN(CCCF)C2)cc1 [Compound 26, (Z)-9-(4-((1-(3-fluoropropyl)pyrrolidin-3-ylidene)methyl)phenyl)-8-(4-(trifluoromethyl)phenyl)-6,7-dihydro-5H-benzo[7]annulene-3-carboxylic acid]
93 | O=C(O)c1ccc2c(c1)CCCC(c1cccc(Cl)c1)=C2c1ccc(/C=C2/CCN(CCCF)C2)cc1 [Compound 27, (Z)-8-(3-chlorophenyl)-9-(4-((1-(3-fluoropropyl)pyrrolidin-3-ylidene)methyl)phenyl)-6,7-dihydro-5H-benzo[7]annulene-3-carboxylic acid]
93 | O=C(O)c1ccc2c(c1)CCCC(c1ccc(Cl)cc1)=C2c1ccc(/C=C2/CCN(CCCF)C2)cc1 [Compound 28, (Z)-8-(4-chlorophenyl)-9-(4-((1-(3-fluoropropyl)pyrrolidin-3-ylidene)methyl)phenyl)-6,7-dihydro-5H-benzo[7]annulene-3-carboxylic acid]
92 | Cc1cc(C2=C(c3ccc(/C=C4/CCN(CCCF)C4)cc3)c3ccc(C(=O)O)cc3CCC2)c(C)cc1F [Compound 29, (Z)-8-(4-fluoro-2,5-dimethylphenyl)-9-(4-((1-(3-fluoropropyl)pyrrolidin-3-ylidene)methyl)phenyl)-6,7-dihydro-5H-benzo[7]annulene-3-carboxylic acid]
90 | Oc1ccc2c(c1)SCCC(c1ccc(Cl)cc1Cl)=C2c1ccc(/C=C2/CCN(CCCF)C2)cc1 [Compound 30, (Z)-4-(2,4-dichlorophenyl)-5-(4-((1-(3-fluoropropyl)pyrrolidin-3-ylidene)methyl)phenyl)-2,3-dihydrobenzo[b]thiepin-8-ol]
